Consider two molecules from ChEMBL document CHEMBL3638922, “2-amino-3-sulphonyl-tetrahydro-pyrazolo[1,5-A]pyrido-pyrimidine antagonists of serotonin 5-HT6 receptors, methods for the production and use thereof” (2013).

Molecules are shown by their SMILES.

This experiment deals with 5-hydroxytryptamine receptor 6 (Homo sapiens, UniProt P50406). In words: Radioligand Binding Assay: The screening of the disclosed compounds for their potential ability to interact with serotonin 5-HT6 receptors was carried out b the method of radioligand binding.
5-hydroxytryptamine receptor 6, sequence (P50406 whole entry): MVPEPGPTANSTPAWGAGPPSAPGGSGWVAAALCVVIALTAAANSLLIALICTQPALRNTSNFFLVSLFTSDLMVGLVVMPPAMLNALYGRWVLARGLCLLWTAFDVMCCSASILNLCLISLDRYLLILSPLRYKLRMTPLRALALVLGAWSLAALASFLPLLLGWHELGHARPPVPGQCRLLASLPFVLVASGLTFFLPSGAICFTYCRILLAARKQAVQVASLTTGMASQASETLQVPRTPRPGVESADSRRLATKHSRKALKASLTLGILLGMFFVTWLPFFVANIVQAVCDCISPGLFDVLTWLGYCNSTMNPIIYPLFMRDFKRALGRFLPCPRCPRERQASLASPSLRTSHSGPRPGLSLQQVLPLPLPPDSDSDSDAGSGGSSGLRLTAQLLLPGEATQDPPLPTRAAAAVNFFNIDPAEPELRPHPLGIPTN

Usually IC50 stands for the point on the concentration scale where inhibition reaches its midpoint. High values mean a need for much substance, low ones inhibition by little substance. As usually defined, the Ki is a dissociation constant, usually derived from enzyme kinetics or from competition with a known ligand. Low values mean a stronger hold on the target, high ones a looser hold on the target.

`CNc1nn2cc3c(nc2c1S(=O)(=O)c1ccccc1)CCN(C)C3` displayed a concentration for half-maximal inhibition (IC50) of 7.02 nM and a Ki of 3.26 nM.
Take `CNc1nn2c3c(cnc2c1S(=O)(=O)c1ccccc1)CN(C)CC3`: the IC50 amounted to 0.837 nM.
